Data taken from patent US20120028995A1, “NOVEL COMPOUNDS FOR MEDICAL USE AS PEPTIDASE EFFECTORS” (IMTM GMBH, priority 2010, published 2012).
Read-outs that look alike come from different tables or passages of the source.

Columns and labels:
NHEK cells = assay: Inhibition of DNA synthesis and proliferation of normal human epidermal keratinocytes (NHEK); format: cell-based; conditions: EGF-stimulated NHEK, BrdU incorporation, read-out: Supp. DNA Synt. NHEK IC50
Method: NHEK cells (primary cells from person) were purchased from PromoCell. For these assay the adherent cells were cultured in serum-free Keratinocyte Growth medium 2 supplemented with epidermal growth factor (EGF) and bovine pituitary extract for 48 hours in flat-bottom microtiter plates. EGF stimulates the DNA synthesis and proliferation of these cells. Test items were added in concentrations from 0.1 up to 100 μM.
The DNA synthesis was assessed by incorporation of bromdesoxyuridine (BrdU) and subsequent detection of BrdU by ELISA technique. Based on these raw data the relative proliferation response in relation to cells cultured in the absence of test compound (100% control) was calculated. IC50 values of proliferation suppression were assessed by computer-assisted graphical evaluation.

[1] = molecular target: T1, cytosolic aminopeptidase (cAAP) purified from Jurkat cells (Homo sapiens, UniProt P55786); assay: Inhibition of enzymatic activity of cytosolic aminopeptidase (cAAP); format: biochemical; conditions: highest test item concentration 25 μM; for IC50: read-out: meas. IC50 (cAAP)
T1 construct: The cytosolic aminopeptidase (cAAP) was purified from Jurkat cells; endogenous in cells; host or cells: Jurkat cells (enzyme purified from them)

[2] = test system: purified, recombinant DP8 and DP9; assay: Inhibition of enzymatic activity of DP8/9; format: biochemical; conditions: highest test item concentration 25 μM
Method: (§1) The inhibition of the enzymatic activity of DPIV and related enzymes was measured by using purified, recombinant human DPIV (purified from transfected Sf9 cells, final enzyme concentration approx. 1 nM) as well as purified, recombinant DP8 and DP9 (purchased from Biomol). The assay was performed in 0.05M TRIS/HCl puffer pH 7.5, supplemented with 0.05% Triton (v/v), 0.05% BSA (w/v), 2 mM MgCl2.
(§2) The enzymatic activity of DPIV was assessed by the hydrolysis of the fluorogenic substrates H-Gly-Pro-4-amino-7-methyl coumarine (abbreviation of fluorogenic group AMC; purchased from Bachem) or (Ala-Pro)2-Rhodamine 110 (abbreviation R110). The final substrate concentrations were 50 μM or 1 μM, respectively.
(§3) The assay was performed in white microtitre plates for fluorescence measurements. The test items, substrate and enzyme were diluted in assay buffer. The highest test item concentration used was 25 μM. For the calculation of IC50 values, at least 16 log 2-dilutions of each test item were analyzed. As controls, the DPIV activity in the absence of test items as well as the spontaneous hydrolysis of the substrate was determined.
(§4) The release of the fluorescent hydrolysis product AMC was measured at an excitation wavelength of 380 nm and an emission wavelength of 460 nm by using a microtitre fluorescence reader immediately after substrate addition as well as after 30, 60 and 120 min. The hydrolysis of the substrate (Ala-Pro)2-Rhodamine 110 was determined at an exitation wavelength of 488 nm and emission wavelength of 530 nm.

[3] = molecular target: T2, aminopeptidase N (APN), purified recombinant human enzyme (Homo sapiens, UniProt P15144); assay: Inhibition of enzymatic activity of aminopeptidase N (fluorogenic substrate hydrolysis); format: biochemical; conditions: highest test item concentration 25 μM
T2 construct: made in house; host or cells: ECV cells (transfected)
Method: The inhibition of the enzymatic activity of aminopeptidase N (APN) was measured by using purified, recombinant human enzyme (purified from transfected ECV cells, final enzyme concentration approx. 1 nM). […] The assay was performed in 0.05M TRIS/HCl puffer pH 7.5, supplemented with 0.05% Triton (v/v), 0.05% BSA (w/v), 2 mM MgCl2.
The aminopeptidase acitivities wer assessed by the hydrolysis of the fluorogenic substrates H-Ala-4-amino-7-methyl coumarine (abbreviation of fluorogenic group AMC; purchased from Bachem) or (Ala-)2-Rhodamine 110 (abbreviation R110). The final substrate concentrations were again 50 and 1 μM, respectively.
as §3
The release of the fluorescent hydrolysis products AMC and R110 was measured as described above for DPIV substrates.

T lymphocytes (T cells) = assay: Suppression of DNA synthesis of PHA-stimulated T lymphocytes; format: cell-based; conditions: tritium thymidine incorporation, read-out: Supp. DNA Synt. T-cell IC50
Method: Peripheral blood mononuclear cells (PBMC) from healthy human volunteers were freshly isolated by density gradient centrifugation. T lymphocytes (T cells) were isolated from PBMC fractions via nylon wool adherence. Both cell populations were cultured in serum free lymphocyte medium (AIMV medium, Invitrogen) and stimulated by addition of 1 μg/ml Phytohemagglutinine for 48 hours in 96 well flat-bottom microtiter plates. Test compounds were added at concentration ranges from 0.1 up to 250 μM over the total assay period.
DNA synthesis of proliferating PBMC was assessed by incorporation of nucleotide analogue bromdesoxyuridine (BrdU) and subsequent detection of BrdU by ELISA technique (Cell Proliferation Biotrak™ ELISA system, GE Health Care) according to the protocol of the manufacturer. DNA synthesis of proliferating T cells was determined by incorporation of radio labelled tritium thymidine and subsequent radio detection.
Data output was based on raw data and calculation of relative proliferation response in relation to PHA-activated T cells in the absence of test compound (100% control). The IC50 value of proliferation suppression was assessed by graphical evaluation.

[4] = molecular target: T3, purified, recombinant human DPIV (Homo sapiens, UniProt P27487); assay: Inhibition of enzymatic activity of DPIV (fluorogenic substrate hydrolysis); format: biochemical; conditions: highest test item concentration 25 μM
T3 construct: made in house; host or cells: Sf9 insect cells
Method: as §1, §2, §3, §4

SZ95 cells = assay: Inhibition of DNA synthesis and proliferation of immortalized human sebocytes SZ95; format: cell-based; conditions: EGF-stimulated SZ95 sebocytes, tritium thymidine incorporation, read-out: Supp. DNA Synt. SZ95 IC50
Method: The immortalized human sebocyte line SZ95 was provided by Prof. C Zouboulis [C C Zouboulis, H Seltmann, H Neitzel, C E Orfanos, Establishment and characterization of an immortalized human sebaceous gland cell line (SZ95). J. Invest. Dermatol. 113(6):1011-1020 (1999), the entire disclosure of which is incorporated by reference herein]. These adherent growing cells were cultured in serum-free Sebomed Complete (Biochrom). Recombinant EGF was added in order to stimulate DNA synthesis and proliferation of the SZ95 cells. Test items were added in concentrations from 0.1 up to 100 μM.
The DNA synthesis of proliferating cells was detected by incorporation of radiolabelled tritium thymidine (3HT) and counting at a beta counter. Based on these raw data the relative proliferation response in relation to cells cultured in the absence of test compound (100% control) was calculated. IC50 values of proliferation suppression were assessed by computer-assisted graphical evaluation.

T2 sequence (P15144 whole entry): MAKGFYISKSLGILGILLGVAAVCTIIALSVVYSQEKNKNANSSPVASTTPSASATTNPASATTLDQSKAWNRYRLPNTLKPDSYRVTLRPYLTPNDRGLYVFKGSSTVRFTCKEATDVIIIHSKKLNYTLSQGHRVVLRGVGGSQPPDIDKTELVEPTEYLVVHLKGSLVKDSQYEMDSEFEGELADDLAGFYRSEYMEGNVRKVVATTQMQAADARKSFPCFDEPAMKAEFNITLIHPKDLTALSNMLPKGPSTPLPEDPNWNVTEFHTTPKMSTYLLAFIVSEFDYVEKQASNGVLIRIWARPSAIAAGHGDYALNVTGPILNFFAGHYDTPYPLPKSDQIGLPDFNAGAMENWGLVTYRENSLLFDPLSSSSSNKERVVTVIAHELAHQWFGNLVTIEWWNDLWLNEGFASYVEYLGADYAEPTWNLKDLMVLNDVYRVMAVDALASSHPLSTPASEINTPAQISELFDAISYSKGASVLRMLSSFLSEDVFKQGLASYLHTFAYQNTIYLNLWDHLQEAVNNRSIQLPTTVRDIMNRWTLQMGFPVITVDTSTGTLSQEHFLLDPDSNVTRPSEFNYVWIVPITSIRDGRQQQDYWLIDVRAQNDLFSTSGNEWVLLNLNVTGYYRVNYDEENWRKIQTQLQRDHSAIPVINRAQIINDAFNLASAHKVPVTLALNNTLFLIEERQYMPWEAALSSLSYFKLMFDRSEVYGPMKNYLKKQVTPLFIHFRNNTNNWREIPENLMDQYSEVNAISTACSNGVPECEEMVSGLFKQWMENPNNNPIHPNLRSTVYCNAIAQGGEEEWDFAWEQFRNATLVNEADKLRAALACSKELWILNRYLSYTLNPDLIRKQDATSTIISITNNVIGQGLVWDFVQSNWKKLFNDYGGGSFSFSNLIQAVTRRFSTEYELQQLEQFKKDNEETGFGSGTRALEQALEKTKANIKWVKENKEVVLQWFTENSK
T3 sequence (P27487 whole entry): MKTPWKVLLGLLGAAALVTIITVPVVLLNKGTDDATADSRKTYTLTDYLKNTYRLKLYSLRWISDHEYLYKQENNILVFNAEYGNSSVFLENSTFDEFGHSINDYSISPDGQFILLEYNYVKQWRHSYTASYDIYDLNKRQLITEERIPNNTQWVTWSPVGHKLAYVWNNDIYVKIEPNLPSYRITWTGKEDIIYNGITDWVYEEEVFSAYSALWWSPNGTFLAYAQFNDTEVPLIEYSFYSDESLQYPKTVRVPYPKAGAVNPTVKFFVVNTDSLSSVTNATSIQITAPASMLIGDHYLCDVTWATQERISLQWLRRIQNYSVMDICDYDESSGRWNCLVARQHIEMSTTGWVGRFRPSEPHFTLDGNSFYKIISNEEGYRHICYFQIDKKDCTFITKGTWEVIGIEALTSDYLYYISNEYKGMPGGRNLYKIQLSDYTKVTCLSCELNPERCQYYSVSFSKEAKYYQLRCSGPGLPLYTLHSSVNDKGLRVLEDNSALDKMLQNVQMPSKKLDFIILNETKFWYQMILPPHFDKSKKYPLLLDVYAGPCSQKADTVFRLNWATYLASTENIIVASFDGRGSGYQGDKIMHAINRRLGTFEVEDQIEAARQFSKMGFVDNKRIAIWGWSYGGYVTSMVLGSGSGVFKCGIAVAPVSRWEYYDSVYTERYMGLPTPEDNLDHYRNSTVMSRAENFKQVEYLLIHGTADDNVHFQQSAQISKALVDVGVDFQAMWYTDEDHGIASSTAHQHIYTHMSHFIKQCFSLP
T1 sequence (P55786 whole entry): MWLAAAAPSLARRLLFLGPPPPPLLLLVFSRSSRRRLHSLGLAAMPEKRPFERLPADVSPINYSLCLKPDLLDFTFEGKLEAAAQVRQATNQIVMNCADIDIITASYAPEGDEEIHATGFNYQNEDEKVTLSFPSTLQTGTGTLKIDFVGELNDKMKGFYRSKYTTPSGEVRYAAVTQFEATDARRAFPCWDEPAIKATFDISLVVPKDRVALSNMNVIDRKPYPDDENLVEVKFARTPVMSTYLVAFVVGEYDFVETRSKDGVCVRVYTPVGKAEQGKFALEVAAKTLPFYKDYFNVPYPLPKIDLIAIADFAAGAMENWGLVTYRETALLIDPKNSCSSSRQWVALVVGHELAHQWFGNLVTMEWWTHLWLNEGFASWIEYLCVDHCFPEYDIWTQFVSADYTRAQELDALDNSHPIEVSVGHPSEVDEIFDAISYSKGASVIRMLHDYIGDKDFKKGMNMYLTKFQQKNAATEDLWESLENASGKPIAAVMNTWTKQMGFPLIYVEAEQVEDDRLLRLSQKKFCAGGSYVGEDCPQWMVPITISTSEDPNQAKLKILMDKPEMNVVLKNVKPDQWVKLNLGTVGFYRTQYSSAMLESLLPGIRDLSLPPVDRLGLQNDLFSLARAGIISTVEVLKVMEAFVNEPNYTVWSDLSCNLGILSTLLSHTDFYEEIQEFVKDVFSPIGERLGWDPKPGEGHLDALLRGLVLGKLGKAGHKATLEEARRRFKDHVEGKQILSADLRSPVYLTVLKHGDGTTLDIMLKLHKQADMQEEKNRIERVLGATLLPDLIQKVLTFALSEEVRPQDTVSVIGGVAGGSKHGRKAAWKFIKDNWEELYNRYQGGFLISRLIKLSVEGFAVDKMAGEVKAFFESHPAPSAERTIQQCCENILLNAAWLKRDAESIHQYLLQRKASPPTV

| SMILES | IC50 (NHEK cells; 48 hours) | meas. IC50 (cAAP) [1] | meas. IC50 (DP8/9) [2] | meas. IC50 (APN) [3] | IC50 (T lymphocytes (T cells); PHA-stimulated human T cells, 48 hours) | meas. IC50 (DPIV) [4] | IC50 (SZ95 cells) | IC50 (NHEK cells; Homo sapiens, NHEK, 48 h) | IC50 [1] | IC50 (T lymphocytes (T cells); Homo sapiens, T-cell, 48 h) | IC50 (SZ95 cells; Homo sapiens) | IC50 ([3]; read-out: meas. IC50 (APN)) |
| --- | --- | --- | --- | --- | --- | --- | --- | --- | --- | --- | --- | --- |
| CC(C)(CNC(=O)CC(Cc1cc(F)ccc1F)NC(=O)OC(C)(C)C)CNC(=O)C(O)C(COCc1ccccc1)NC(=O)OC(C)(C)C (centres unmarked) [Compound C19.004] | 19.8 µM | no in- hibition | no in- hibition | no in- hibition | 9.7 µM | no in- hibition | 18.3 µM | – | – | – | – | – |
| CCCC(=O)OC(C(=O)Nc1cccc(C(=O)NCC(Cc2cc(F)ccc2F)NC(=O)OC(C)(C)C)c1)C(COCc1ccccc1)NC(=O)OC(C)(C)C (centres unmarked) [Compound C19.005] | – | – | no in- hibition | no in- hibition | – | no in- hibition | – | 3.65 µM | 5.7 µM | 11.5 µM | 10.7 µM | – |
| COc1ccc(COCC(NC(=O)OC(C)(C)C)C(O)C(=O)NCC(C)(C)CNC(=O)CC(Cc2cc(F)ccc2F)NC(=O)OC(C)(C)C)cc1 (centres unmarked) [Compound C19.006] | – | – | no in- hibition | no in- hibition | – | no in- hibition | – | 24.1 µM | 10.2 µM | 6.2 µM | 18.5 µM | – |
| CCCCCCCC(=O)OC(C(=O)NCC(C)(C)CNC(=O)CC(Cc1cc(F)ccc1F)NC(=O)OC(C)(C)C)C(COCc1ccc(OC)cc1)NC(=O)OC(C)(C)C (centres unmarked) [Compound C19.007] | – | no in- hibition | no in- hibition | no in- hibition | – | no in- hibition | – | ≥ 120 µM | – | 78.6 µM | 56.8 µM | – |
| CC(C)(CNC(=O)CC(Cc1cc(F)ccc1F)NC(=O)OCc1ccccc1)CNC(=O)C(O)C(COCc1ccccc1)NC(=O)OCc1ccccc1 (centres unmarked) [Compound C19.008] | – | – | no in- hibition | no in- hibition | – | no in- hibition | – | 6.77 µM | 5.8 µM | 5.7 µM | 8.6 µM | – |
| CCOC(=O)NC(CC(=O)NCC(C)(C)CNC(=O)C(O)C(COCc1ccccc1)NC(=O)OCC)Cc1cc(F)ccc1F (centres unmarked) [Compound C19.009] | – | – | no in- hibition | – | – | no in- hibition | – | 100 µM | 3.4 µM | 33.9 µM | 59.1 µM | 5.9 µM |
| CCCCCCCC(=O)NC(CC(=O)NCC(C)(C)CNC(=O)C(O)C(COCc1ccccc1)NC(=O)CCCCCCC)Cc1cc(F)ccc1F (centres unmarked) [Compound C19.010] | – | – | no in- hibition | no in- hibition | – | no in- hibition | – | 48.1 µM | 3.5 µM | 7.6 µM | 12.2 µM | – |
| CCCCCCCCCCCCCC(=O)NC(CC(=O)NCC(C)(C)CNC(=O)C(O)C(COCc1ccccc1)NC(=O)CCCCCCCCCCCCC)Cc1cc(F)ccc1F (centres unmarked) [Compound C19.011] | – | no in- hibition | no in- hibition | no in- hibition | – | no in- hibition | – | ≥ 110 µM | – | 168 µM | ≥ 155 µM | – |
| CCCCCC(=O)NC(CC(=O)NCC(C)(C)CNC(=O)C(O)C(COCc1ccccc1)NC(=O)CCCCC)Cc1cc(F)ccc1F (centres unmarked) [Compound C19.012] | – | – | no in- hibition | no in- hibition | – | no in- hibition | – | 17.5 µM | 0.51 µM | 12.2 µM | 28.6 µM | – |
| CCCCCC(=O)NC(CC(=O)NCC(C)(C)CNC(=O)C(O)C(COCc1ccc(OC)cc1)NC(=O)CCCCC)Cc1cc(F)ccc1F (centres unmarked) [Compound C19.013] | – | no in- hibition | no in- hibition | no in- hibition | – | no in- hibition | – | 15.3 µM | – | 6.5 µM | 17.4 µM | – |
| CCCCCC(=O)NC(CC(=O)NCC(C)(C)CNC(=O)C(OC(=O)CCCCC)C(COCc1ccccc1)NC(=O)CCCCC)Cc1cc(F)ccc1F (centres unmarked) [Compound C19.014] | – | no in- hibition | no in- hibition | no in- hibition | – | no in- hibition | – | 2.97 µM | – | 19.8 µM | ≥ 149 µM | – |
